{
  "source": "patent US20230019236A1",
  "about": "“PROTEIN TYROSINE PHOSPHATASE INHIBITORS AND METHODS OF USE THEREOF” (Calico Life Sciences LLC, priority 2019, published 2023)",
  "data": [
    {"molecular_target": "T1, His tagged full-length PTP1B protein (Homo sapiens, UniProt P18031)", "T1 construct": "made in house", "T1 sequence (P18031 with tags, fused parts or gaps)": "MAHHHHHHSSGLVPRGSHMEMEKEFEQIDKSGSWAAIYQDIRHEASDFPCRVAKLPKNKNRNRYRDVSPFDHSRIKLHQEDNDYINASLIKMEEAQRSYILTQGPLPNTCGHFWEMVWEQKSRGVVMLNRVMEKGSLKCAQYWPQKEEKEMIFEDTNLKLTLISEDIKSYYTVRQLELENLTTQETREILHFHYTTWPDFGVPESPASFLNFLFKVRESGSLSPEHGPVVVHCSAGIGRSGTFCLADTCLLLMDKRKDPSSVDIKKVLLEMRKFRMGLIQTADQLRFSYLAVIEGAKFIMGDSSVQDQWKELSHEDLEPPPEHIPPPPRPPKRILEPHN", "experiment": "Mobility Shift Assay (MSA) used to determine potency of PTP1B inhibitors", "type": "biochemical", "settings": "Table 2", "protocol": "The enzymatic assay used to determine activity is a mobility shift assay using a LabChip EZ Reader by Caliper Life Sciences. The enzymatic reaction was carried out in assay buffer (50 mM HEPES pH 7.5, 1 mM EGTA, 10 mM EDTA, 0.01% Tween® 20, and 2 mM DTT). […] The enzyme (at 0.5 nM) was incubated with compound for 10 minutes at room temperature. […] The % inhibition was then used to calculate the IC50 values.", "units": {"IC50": "nM"}, "values": [
      {"smiles": "[2H]C([2H])([2H])Oc1ccc2cc(O)c(N3CC(=O)NS3(=O)=O)c(F)c2c1", "note": "[Compound 118, 5-{1-fluoro-3-hydroxy-7-[(2H3)methyloxy]naphthalen-2-yl}-1λ^6,2,5-thiadiazolidine-1,1,3-trione]", "IC50": "1 to 10"},
      {"smiles": "O=C1CN(c2c(O)cc3ccc(C(F)F)cc3c2F)S(=O)(=O)N1", "note": "[Compound 167, 5-[7-(difluoromethyl)-1-fluoro-3-hydroxynaphthalen-2-yl]-1λ^6,2,5-thiadiazolidine-1,1,3-trione]", "IC50": "> 100"},
      {"smiles": "Nc1cccc(CS(=O)(=O)N2CC=C(c3ccc4cc(O)c(N5CC(=O)NS5(=O)=O)c(F)c4c3)C2)c1", "note": "[Compound 194, 5-(7-{1-[(3-aminophenyl)methanesulfonyl]-2,5-dihydro-1H-pyrrol-3-yl}-1-fluoro-3-hydroxynaphthalen-2-yl)-1λ^6,2,5-thiadiazolidine-1,1,3-trione]", "IC50": "1 to 10"},
      {"smiles": "CCNC(=O)NCCOc1ccc2cc(O)c(N3CC(=O)NS3(=O)=O)c(F)c2c1", "note": "[Compound 270, N-ethyl-N′-(2-{[8-fluoro-6-hydroxy-7-(1,1,4-trioxo-1λ^6,2,5-thiadiazolidin-2-yl)naphthalen-2-yl]oxy}ethyl)urea]", "IC50": "1 to 10"},
      {"smiles": "CCOc1ccc2cc(O)c(N3CC(=O)NS3(=O)=O)c(F)c2c1", "note": "[Compound 301, 5-(7-ethoxy-1-fluoro-3-hydroxynaphthalen-2-yl)-1λ^6,2,5-thiadiazolidine-1,1,3-trione]", "IC50": "> 100"},
      {"smiles": "COc1ccc2cc(O)c(N3CC(=O)NS3(=O)=O)c(F)c2c1Cl", "note": "[Compound 234, 5-(8-chloro-1-fluoro-3-hydroxy-7-methoxynaphthalen-2-yl)-1λ^6,2,5-thiadiazolidine-1,1,3-trione]", "IC50": "10 to 100"},
      {"smiles": "O=C1CN(c2c(O)cc3ccc(C(=O)NCC4CC4)cc3c2F)S(=O)(=O)N1", "note": "[Compound 136, N-(cyclopropylmethyl)-8-fluoro-6-hydroxy-7-(1,1,4-trioxo-1λ^6,2,5-thiadiazolidin-2-yl)naphthalene-2-carboxamide]", "IC50": "10 to 100"},
      {"smiles": "O=C1CN(c2c(O)cc3ccc(C4=CCN(CC5CC5)C4)cc3c2F)S(=O)(=O)N1", "note": "[Compound 242, 5-{7-[1-(cyclopropylmethyl)-2,5-dihydro-1H-pyrrol-3-yl]-1-fluoro-3-hydroxynaphthalen-2-yl}-1λ^6,2,5-thiadiazolidine-1,1,3-trione]", "IC50": "1 to 10"},
      {"smiles": "COC(C)(C)CCOc1ccc2cc(O)c(N3CC(=O)NS3(=O)=O)c(F)c2c1", "note": "[Compound 170, 5-[1-fluoro-3-hydroxy-7-(3-methoxy-3-methylbutoxy)naphthalen-2-yl]-1λ^6,2,5-thiadiazolidine-1,1,3-trione]", "IC50": "1 to 10"},
      {"smiles": "CNCC(C)(C)CCOc1ccc2cc(O)c(N3CC(=O)NS3(=O)=O)c(F)c2c1", "note": "[Compound 163, 5-{7-[3,3-dimethyl-4-(methylamino)butoxy]-1-fluoro-3-hydroxynaphthalen-2-yl}-1λ^6,2,5-thiadiazolidine-1,1,3-trione]", "IC50": "> 100"},
      {"smiles": "COc1ccc2c(F)c(O)c(N3CC(=O)NS3(=O)=O)c(F)c2c1", "note": "[Compound 117, 5-(1,4-difluoro-3-hydroxy-7-methoxynaphthalen-2-yl)-1λ^6,2,5-thiadiazolidine-1,1,3-trione]", "IC50": "1 to 10"},
      {"smiles": "C[C@@H](O)CCCc1ccc2cc(O)c(N3CC(=O)NS3(=O)=O)c(F)c2c1", "note": "[Compound 151, 5-{1-fluoro-3-hydroxy-7-[(4R)-4-hydroxypentyl]naphthalen-2-yl}-1λ^6,2,5-thiadiazolidine-1,1,3-trione]", "IC50": "1 to 10"},
      {"smiles": "O=C1CN(c2c(O)cc3ccc(C4CN(S(=O)(=O)C5CC5)C4)cc3c2F)S(=O)(=O)N1", "note": "[Compound 206, 5-{7-[1-(cyclopropanesulfonyl)azetidin-3-yl]-1-fluoro-3-hydroxynaphthalen-2-yl}-1λ^6,2,5-thiadiazolidine-1,1,3-trione]", "IC50": "1 to 10"},
      {"smiles": "N#CCCCCS(=O)(=O)N1CC=C(c2ccc3cc(O)c(N4CC(=O)NS4(=O)=O)c(F)c3c2)C1", "note": "[Compound 293, 5-{3-[8-fluoro-6-hydroxy-7-(1,1,4-trioxo-1λ^6,2,5-thiadiazolidin-2-yl)naphthalen-2-yl]-2,5-dihydro-1H-pyrrole-1-sulfonyl}pentanenitrile]", "IC50": "< 1"},
      {"smiles": "CC(C)OCCOc1ccc2cc(O)c(N3CC(=O)NS3(=O)=O)c(F)c2c1", "note": "[Compound 215, 5-(1-fluoro-3-hydroxy-7-{2-[(propan-2-yl)oxy]ethoxy}naphthalen-2-yl)-1λ^6,2,5-thiadiazolidine-1,1,3-trione]", "IC50": "1 to 10"},
      {"smiles": "Cc1nn(C)cc1S(=O)(=O)N1CC=C(c2ccc3cc(O)c(N4CC(=O)NS4(=O)=O)c(F)c3c2)C1", "note": "[Compound 310, 5-{7-[1-(1,3-dimethyl-1H-pyrazole-4-sulfonyl)-2,5-dihydro-1H-pyrrol-3-yl]-1-fluoro-3-hydroxynaphthalen-2-yl}-1λ^6,2,5-thiadiazolidine-1,1,3-trione]", "IC50": "1 to 10"},
      {"smiles": "CCOCCCOc1ccc2cc(O)c(N3CC(=O)NS3(=O)=O)c(F)c2c1", "note": "[Compound 216, 5-[7-(3-ethoxypropoxy)-1-fluoro-3-hydroxynaphthalen-2-yl]-1λ^6,2,5-thiadiazolidine-1,1,3-trione]", "IC50": "1 to 10"},
      {"smiles": "CC(C)CCNc1ccc2cc(O)c(N3CC(=O)NS3(=O)=O)c(F)c2c1", "note": "[Compound 200, 5-{1-fluoro-3-hydroxy-7-[(3-methylbutyl)amino]naphthalen-2-yl}-1λ^6,2,5-thiadiazolidine-1,1,3-trione]", "IC50": "< 1"},
      {"smiles": "CC(C)(CN)CCOc1ccc2cc(O)c(N3CC(=O)NS3(=O)=O)c(F)c2c1", "note": "[Compound 176, 5-[7-(4-amino-3,3-dimethylbutoxy)-1-fluoro-3-hydroxynaphthalen-2-yl]-1λ^6,2,5-thiadiazolidine-1,1,3-trione]", "IC50": "1 to 10"},
      {"smiles": "O=C1CN(c2c(O)cc3ccc(C4CCNCC4)cc3c2F)S(=O)(=O)N1", "note": "[Compound 299, 5-[1-fluoro-3-hydroxy-7-(piperidin-4-yl)naphthalen-2-yl]-1λ^6,2,5-thiadiazolidine-1,1,3-trione]", "IC50": "10 to 100"},
      {"smiles": "N#CCOc1ccc2cc(O)c(N3CC(=O)NS3(=O)=O)c(F)c2c1", "note": "[Compound 203, {[8-fluoro-6-hydroxy-7-(1,1,4-trioxo-1λ^6,2,5-thiadiazolidin-2-yl)naphthalen-2-yl]oxy}acetonitrile]", "IC50": "> 100"},
      {"smiles": "O=C1CN(c2c(O)cc3ccc(OCCF)cc3c2F)S(=O)(=O)N1", "note": "[Compound 198, 5-[1-fluoro-7-(2-fluoroethoxy)-3-hydroxynaphthalen-2-yl]-1λ^6,2,5-thiadiazolidine-1,1,3-trione]", "IC50": "10 to 100"},
      {"smiles": "O=C1CN(c2c(O)cc3ccc(CCO)cc3c2F)S(=O)(=O)N1", "note": "[Compound 175, 5-[1-fluoro-3-hydroxy-7-(2-hydroxyethyl)naphthalen-2-yl]-1λ^6,2,5-thiadiazolidine-1,1,3-trione]", "IC50": "10 to 100"},
      {"smiles": "CCNCCCc1ccc2cc(O)c(N3CC(=O)NS3(=O)=O)c(F)c2c1", "note": "[Compound 140, 5-{7-[3-(ethylamino)propyl]-1-fluoro-3-hydroxynaphthalen-2-yl}-1λ^6,2,5-thiadiazolidine-1,1,3-trione]", "IC50": "10 to 100"},
      {"smiles": "O=C1CN(c2c(O)cc3ccc(OCCC(F)(F)F)cc3c2F)S(=O)(=O)N1", "note": "[Compound 180, 5-[1-fluoro-3-hydroxy-7-(3,3,3-trifluoropropoxy)naphthalen-2-yl]-1λ^6,2,5-thiadiazolidine-1,1,3-trione]", "IC50": "10 to 100"},
      {"smiles": "O=C1CN(c2c(O)cc3ccc(OCC4CCOCC4)cc3c2F)S(=O)(=O)N1", "note": "[Compound 273, 5-{1-fluoro-3-hydroxy-7-[(oxan-4-yl)methoxy]naphthalen-2-yl}-1λ^6,2,5-thiadiazolidine-1,1,3-trione]", "IC50": "> 100"}
    ]}
  ]
}
